Experimental data taken from US5643877A, “Compounds comprising gonadotropin releasing hormone (GnRH) and methods for controlling reproduction in fish” (University of Maryland Biotechnology Institute, priority 1994, dated 1997).
“Also recorded” adds a separate entry of the source. Square brackets hold non-standard residues; d marks the D form. Peptide text beside a SMILES is read from it. pGlu = O=C1CC[C@@H](C(=O)O)N1

Tested on: GtH-II secretion in female gilthead seabream
Test: In vivo gonadotropin-releasing potency: plasma GtH-II by homologous radioimmunoassay after intramuscular injection of GnRH peptides
Parameters: species or system Sparus aurata
Settings: for gonadotropin (GtH-II) secretion of sbGnRH, its analogs and the mGnRH analog compared (in words) / blood GtH-II levels, times higher than in sbGnRH-injected females: third experiment; for gonadotropin (GtH-II) secretion of sbGnRH, its analogs and the mGnRH analog compared (in words): 5 μg/kg body weight, 1.5, 4 and 8 hours post-injection; for GtH-II levels, times higher than in saline-injected fish: 25 μg/kg body weight; for stimulation of GtH-II secretion (in words): reproductively mature seabream females, native peptides injected at 5 and 25 μg/kg body weight
Protocol: During the spawning season, 104 female seabream at 2 years of age, weighing 458±104 g, with preovulatory oocytes of 500-600 μm in diameter were selected for experimentation. Oocyte developmental stage was determined by microscopic examination of a freshly removed ovarian biopsy, as previously described (Zohar et al., 1979, J. Fish Biol. 15:665-670). The bioactivity of the native forms of GnRH and of the GnRH analogs was studied in three consecutive experiments, carried out on day 1, day 3, and day 8. The first experiment included four groups of eight females. Three groups were injected with 5 μg/kg body weight of either sbGnRH, sGnRH or cGnRH-II. The fourth group was injected with saline. The second experiment included four similar groups, except that the peptides were injected at a dose of 25 μg/kg body weight. The third experiment included five groups, each with eight females. One group was injected with native sbGnRH; two other groups were each injected with an analog of sbGnRH, the [D-Ala^6,Pro^9 -NEt]-sbGnRH and [D-Arg^6,Pro^9 -NEt]-sbGnRH; another group was injected with the analog of the mammalian GnRH, [D-Ala^6,Pro^9 -NEt]-mGnRH; and the last group was injected with saline. All peptides in the third experiment were injected at a dose of 5 μg/kg body weight.
In all experiments, the tested peptides were injected into the dorsal musculature, in a volume of 0.5 ml/kg body weight. Each group of fish was held in a separate 600 liter tank exposed to natural photoperiod conditions and supplied with sea water at 20° C. Fish were bled before the injection of the peptides and at 1.5, 4 and 8 hours post-injection. At each bleeding time, 1 ml of blood was removed from the caudal vessels, using a 1 ml syringe fit with a 21G needle. Prior to injection and bleeding, fish were anesthetized in 0.2 ppt of 2-phenoxy-ethanol. Blood was immediately centrifuged and plasma removed and frozen. Levels of seabream GtH-II in the plasma samples were measured using a homologous and specific radioimmunoassay, as previously described (Zohar et al., 1990, Aquaculture 88:189-204). Blood GtH-II levels in the various groups were statistically compared using ANOVA followed by Duncan new multiple range comparison test.

[1] = 5 μg/kg body weight, 1.5 hours post-injection
[2] = 5 μg/kg body weight, 4 hours after injection
[3] = 5 μg/kg dose, 1.5 hr after injection
[4] = 25 μg/kg body weight, 1.5, 4 and 8 hours post-injection
[5] = 25 μg/kg dose, 1.5 hr after injection
[6] = native GnRH forms, 5 and 25 μg/kg body weight

| SMILES | gonadotropin (GtH-II) secretion of sbGnRH, its analogs and the mGnRH analog compared (in words) | blood GtH-II levels, times higher than in sbGnRH-injected females (5 μg/kg body weight, 1.5 hr) [times] | blood GtH-II levels, times higher than in sbGnRH-injected females (5 μg/kg body weight, 8 hr) [times] | blood GtH-II levels, times higher than in control females [1] | blood GtH-II levels, times higher than in control females [2] | blood GtH-II levels versus control females (5 μg/kg body weight, 8 hours post-injection) | potency in inducing GtH-II secretion, times more potent than sGnRH [3] [times] | potency in inducing GtH-II secretion, times more potent than sbGnRH [3] [times] | GtH-II-releasing potency of the native peptides compared (in words) [4] | GtH-II levels, times higher than in saline-injected fish (1.5 hr after injection) [times] | GtH-II levels, times higher than in saline-injected fish (4 hr after injection) [times] | GtH-II levels, times higher than in saline-injected fish (8 hr after injection) [times] | potency in inducing GtH-II secretion, times more potent than sGnRH [5] [times] | potency in inducing GtH-II secretion, times more potent than sbGnRH [5] [times] | GtH-II-releasing potency of the native peptides compared (in words) [6] | stimulation of GtH-II secretion (in words) |
| --- | --- | --- | --- | --- | --- | --- | --- | --- | --- | --- | --- | --- | --- | --- | --- | --- |
| CCNC(=O)[C@@H]1CCCN1C(=O)[C@H](CO)NC(=O)[C@H](CC(C)C)NC(=O)[C@@H](C)NC(=O)[C@H](Cc1ccc(O)cc1)NC(=O)[C@H](CO)NC(=O)[C@H](Cc1c[nH]c2ccccc12)NC(=O)[C@H](Cc1c[nH]cn1)NC(=O)[C@@H]1CCC(=O)N1 [[D-Ala^6,Pro^9-.NEt]-sbGnRH, [D-Ala^6,Pro^9 -NEt]-sbGnRH] ([pGlu]HWSY[dA]LSP-NHEt) | significantly stronger gonadotropin secretion than did the native sbGnRH; also recorded: equipotent; also recorded: much less potent; also recorded: in the same range as those induced by the native sGnRH and cGnRH-II | 5 | 2.5 | – | – | – | – | – | – | – | – | – | – | – | – | – |
| CCNC(=O)[C@@H]1CCCN1C(=O)[C@H](CO)NC(=O)[C@H](CC(C)C)NC(=O)[C@@H](CCCNC(=N)N)NC(=O)[C@H](Cc1ccc(O)cc1)NC(=O)[C@H](CO)NC(=O)[C@H](Cc1c[nH]c2ccccc12)NC(=O)[C@H](Cc1c[nH]cn1)NC(=O)[C@@H]1CCC(=O)N1 [[D-Arg^6, Pro^9 -NEt]-sbGnRH] ([pGlu]HWSY[dR]LSP-NHEt) | – | 5 | 2.5 | – | – | – | – | – | – | – | – | – | – | – | – | – |
| NC(=O)CNC(=O)[C@@H]1CCCN1C(=O)[C@H](Cc1ccc(O)cc1)NC(=O)[C@H](Cc1c[nH]c2ccccc12)NC(=O)CNC(=O)[C@H](Cc1c[nH]cn1)NC(=O)[C@H](CO)NC(=O)[C@H](Cc1c[nH]c2ccccc12)NC(=O)[C@H](Cc1c[nH]cn1)NC(=O)[C@@H]1CCC(=O)N1 [cGnRH-II, pGlu-His-Trp-Ser -His-Gly-Trp-Tyr-Pro-Gly-NH2, reference compound] ([pGlu]HWSHGWYPG-NH2) | – | – | – | 14.50 times | 6.2 times | higher GtH-II levels | 1.75 | 8 | cGnRH-II>sGnRH>sbGnRH; also recorded: induced higher GtH-II secretion than did sGnRH or sbGnRH | 31.0 | 10.9 | 5.5 | 2 | 7 | significantly more potent than the novel sbGnRH | significantly stimulate GtH-II secretion |
| CC(C)C[C@H](NC(=O)CNC(=O)[C@H](Cc1ccc(O)cc1)NC(=O)[C@H](CO)NC(=O)[C@H](Cc1c[nH]c2ccccc12)NC(=O)[C@H](Cc1c[nH]cn1)NC(=O)[C@@H]1CCC(=O)N1)C(=O)N[C@@H](CO)C(=O)N1CCC[C@H]1C(=O)NCC(N)=O [sbGnRH, pGlu-His-Trp-Ser-Tyr-Gly-Leu-Ser-Pro-Gly-NH 2] | did not induce significant release of GtH-II | – | – | tended to be higher than in the control females | not different from control levels | – | – | – | cGnRH-II>sGnRH>sbGnRH | 4.4 | – | – | – | – | less active than cGnRH-II and sGnRH | significantly stimulate GtH-II secretion |
